In article PMC6522510 (Nature Communications, 2019):
Counter-ions that a name gives are not always drawn. Like-named read-outs stand apart in the source and are kept apart here.

Columns and labels:
Set-up in all cases: species or system AML cell lines (8); Primary HTS, single concentration about 10 uM, Cell Titer Glo viability; log10 luminescence, per cent inhibition relative to cycloheximide control
Settings in all cases: 72 h, relative to cycloheximide control, log10 luminescence, inhibitor
CMS = system: CMS
MV4-11 = system: MV4-11
ML-2 = system: ML-2
MOLM-13 = system: MOLM-13
M07e = system: M07e
U937 = system: U937
CHRF288-11 = system: CHRF288-11
CMK = system: CMK

SMILES	CMS %inh (CMS)	MV4-11 %inh (MV4-11)	ML-2 %inh (ML-2)	MOLM-13 %inh (MOLM-13)	M07e %inh (M07e)	U937 %inh (U937)	CHRF288-11 %inh (CHRF288-11)	CMK %inh (CMK)	CMS %inh (CMS; CMS %inh, 10 µM)	MV4-11 %inh (MV4-11; MV4-11 %inh, 10 µM)	ML-2 %inh (ML-2; ML-2 %inh, 10 µM)	MOLM-13 %inh (MOLM-13; MOLM-13 %inh, 10 µM)	M07e %inh (M07e; M07e %inh, 10 µM)	U937 %inh (U937; U937 %inh, 10 µM)	CHRF288-11 %inh (CHRF288-11; CHRF288-11 %inh, 10 µM)	CMK %inh (CMK; CMK %inh, 10 µM)
Cn1c(=O)c(Oc2ccc(F)cc2F)cc2cnc(N[C@H]3CCOC3)nc21 [SJ000581121-1]	4.412%	2.632%	0.08921%	1.492%	5.749%	1.362%	-0.8909%	3.547%	–	–	–	–	–	–	–	–
Cc1cccc(Nc2ccncc2S(=O)(=O)NC(=O)NC(C)C)c1 [SJ000286085-5, TORSEMIDE]	–	–	–	–	–	–	–	–	-2.109%	0.9899%	1.771%	-1.664%	1.697%	-1.512%	0.4254%	-7.265%
Oc1c(Cl)cc(Cl)c2cccnc12 [SJ000285324-3, CHLOROXINE]	2.824%	77.67%	49.1%	6.345%	20.56%	23.85%	73.25%	45.1%	–	–	–	–	–	–	–	–
COc1cccc(-n2ncc3c(N/N=C/c4ccc(S(C)(=O)=O)cc4)ncnc32)c1 [SJ000573027-1, U18028/92/1]	0.1842%	1.569%	-4.304%	-3.446%	-5.045%	-1.909%	-7.861%	-4.499%	–	–	–	–	–	–	–	–
CC(=O)/N=c1/sc(S(N)(=O)=O)nn1C [SJ000285971-4, METHAZOLAMIDE]	–	–	–	–	–	–	–	–	-3.008%	-0.9248%	1.069%	1.468%	-2.489%	-0.6609%	-2.381%	-8.28%
CNC(=O)c1ncccc1Nc1nc(Nc2cc3c(cc2OC)CCCN3C(=O)CN(C)C)nc2[nH]ccc12 [SJ000573036-1, N6938-65-1]	1.812%	4.775%	45.98%	47.47%	30.44%	17.5%	21.29%	7.075%	–	–	–	–	–	–	–	–
CC(=O)N(O)CCCCCNC(=O)CCC(=O)N(O)CCCCCNC(=O)CCC(=O)N(O)CCCCCN [SJ000285725-5, DEFEROXAMINE MESYLATE]	49.53%	–	–	–	–	32.98%	–	–	–	0.1216%	13.98%	54.77%	9.207%	–	11.75%	30.74%
Fc1ccc(-c2c(-c3ccncc3)n(CCN3CCOCC3)c3cccnc23)cc1 [SJ000581060-1]	2.843%	-0.5528%	0.7421%	-2.603%	4.186%	3.3%	10.61%	-1.956%	–	–	–	–	–	–	–	–
NCCCC[C@H](N[C@@H](CCc1ccccc1)C(=O)O)C(=O)N1CCC[C@H]1C(=O)O [SJ000285890-5, LISINOPRIL]	–	–	–	–	–	–	–	–	-0.7769%	1.898%	2.151%	-1.932%	-0.6293%	0.1781%	0.1312%	-4.631%
N#Cc1c(C(=O)c2ccccc2)cnn1-c1ccccc1 [SJ000581131-1]	1.498%	2.305%	0.5024%	1.329%	8.327%	-0.2486%	0.7045%	-0.4032%	–	–	–	–	–	–	–	–
COc1cc2ncnc(Nc3ccc(C)c(O)c3)c2cc1OC [SJ000573090-1, U13103/179/1]	0.3431%	0.6335%	-3.545%	7.874%	-0.2224%	0.4968%	0.5463%	1.416%	–	–	–	–	–	–	–	–
Fc1ccc(-c2c(-c3ccncc3)nc3n2CCS3)cc1 [SJ000573197-1, EXSB/CR-9802-49AZ]	6.192%	10.89%	4.223%	-3.2%	1.347%	19.21%	6.614%	1.128%	–	–	–	–	–	–	–	–
COc1cc(Nc2ncc3c(C)nc(-c4cccc(C(F)(F)F)c4)n3n2)cc(OC)c1OC [SJ000573311-1, U19240/54/1]	21.85%	65.83%	7.183%	85.98%	19.43%	12.36%	12.88%	13.06%	–	–	–	–	–	–	–	–
COCCOC(=O)C1=C(C)NC(C)=C(C(=O)OC(C)C)C1c1cccc([N+](=O)[O-])c1 (stereo not shown) [SJ000285435-9, NIMODIPINE]	–	–	–	–	–	–	–	–	-2.02%	8.576%	2.121%	3.201%	0.4803%	7.911%	6.868%	3.053%
Clc1ccc(-c2nn3ncccc3c2-c2ccnc(Nc3ccccc3)n2)cc1 [SJ000573097-1, U17838/189/2]	3.744%	3.385%	-2.244%	0.7466%	-1.226%	-1.31%	6.42%	3.667%	–	–	–	–	–	–	–	–
CS(=O)(=O)CCNCc1cc(-c2cc3c(Nc4ccc(OCc5cccc(F)c5)c(Cl)c4)ncnc3s2)cs1 [SJ000573113-1, U20258/167/2]	1.969%	1.359%	-1.098%	4.183%	1.088%	1.681%	-4.074%	4.188%	–	–	–	–	–	–	–	–
CNC(=O)c1cc(-c2ccc(F)cc2)cc(-c2ccc(S(=O)(=O)N3CCCC3)cc2)c1N [SJ000573128-1, R11976/170/3]	9.624%	2.522%	6.119%	10.13%	5.294%	15.8%	14.81%	31.99%	–	–	–	–	–	–	–	–
